Results on six compounds are retold here after patent publication US20080064667A1, “OXAZOLE DERIVATIVES OF TETRACYCLINES” (Wyeth, priority 2003, published 2008).

Converted amounts (≈) assume the structure as drawn.

Common to all, as to test: MIC, broth microdilution (NCCLS)
Type in all cases: cell-based
Background: Dilution methods test growth across graded concentrations, often in twofold steps.

For assay [1], the system named is C. albicans GC3066 ATCC (Control). To be noted: Candida albicans, Mueller-Hinton II broth, 18-22 hours at 35° C.
Assay [2] has as its system E. coli GC1073 (tet(B)). To be noted: Escherichia coli. Put shortly: (§1)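 MICs determined in cation-standard Mueller-Hinton II broth with serial drug dilutions, each strain inoculated to 10^5 CFU/ml. Incubation: 35 °C, ambient air, 18-22 h, following NCCLS broth microdilution guidance.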
Assay [3] deals with E. coli GC2203 (ATCC Control). To be noted: Escherichia coli, Mueller-Hinton II broth, 18-22 hours at 35° C. Put shortly:
as §1

For assay [4], the system named is E. coli GC2270 (tet(M)). To be noted: Escherichia coli. Put shortly: as §1
Assay [5] has as its system E. coli GC4559 (parent GC4560). Particulars: Escherichia coli, Mueller-Hinton II broth, 18-22 hours at 35° C. Put shortly:
as §1

Assay [6] concerns E. coli GC4560 (IMP mutant). Particulars: Escherichia coli. Put shortly:
as §1

Assay [7] has as its system E. faecalis GC2242 (Van-resistant). To be noted: Enterococcus faecalis, Mueller-Hinton II broth, 18-22 hours at 35° C. Put shortly:
as §1

Assay [8] concerns E. faecalis GC4555 (ATCC Control). Particulars: Enterococcus faecalis, Mueller-Hinton II broth, 18-22 hours at 35° C. Put shortly:
as §1

For assay [9], the system named is H. influenzae<> GC6896 (ATCC Control). Particulars: Haemophilus influenzae, Mueller-Hinton II broth, 18-22 hours at 35° C. Put shortly:
as §1

The subject of assay [10] is M. catarrhalis* GC6907 (Clinical). Particulars: Moraxella catarrhalis, Mueller-Hinton II broth, 18-22 hours at 35° C. Put shortly:
as §1

Assay [11] relates to S. aureus GC1079 (tet(K)). To be noted: Staphylococcus aureus, Mueller-Hinton II broth, 18-22 hours at 35° C. Put shortly:
as §1

Assay [12] has as its system S. aureus GC1131 (Clinical). To be noted: Staphylococcus aureus, Mueller-Hinton II broth, 18-22 hours at 35° C. Put shortly: as §1
Assay [13] deals with S. aureus GC2216 (ATCC Control). Particulars: Staphylococcus aureus, Mueller-Hinton II broth, 18-22 hours at 35° C. Put shortly: as §1
For assay [14], the system named is S. aureus GC4536 (Smith MP -In Vivo). Particulars: Staphylococcus aureus, Mueller-Hinton II broth, 18-22 hours at 35° C. Put shortly:
as §1

Assay [15] concerns S. aureus GC6466 (tet(M)). Particulars: Staphylococcus aureus, Mueller-Hinton II broth, 18-22 hours at 35° C. Put shortly: as §1
Assay [16] deals with S. pneumoniae* GC1894 (Clinical). To be noted: Streptococcus pneumoniae, Mueller-Hinton II broth, 18-22 hours at 35° C. Put shortly:
as §1

Assay [17] concerns S. pneumoniae* GC4465 (Clinical). To be noted: Streptococcus pneumoniae, Mueller-Hinton II broth, 18-22 hours at 35° C. Put shortly: as §1
For assay [18], the system named is S. pyogenes* GC4563 (Clinical). Particulars: Streptococcus pyogenes, Mueller-Hinton II broth, 18-22 hours at 35° C. Put shortly:
as §1

As to `CN(C)c1cc2nc(-c3nccs3)oc2c2c1C[C@H]1C[C@H]3[C@H](N(C)C)C(O)=C(C(N)=O)C(=O)[C@@]3(O)C(O)=C1C2=O` [Example 24, (6aR,7aS,8S,11aS)-5,8-bis(dimethylamino)-9,11a,12-trihydroxy-11,13-dioxo-2-(1,3-thiazol-2-yl)-6,6a,7,7a,8,11,11a,13-octahydrotetraceno[2,1-d][1,3]oxazole-10-carboxamide], the MIC in [1] was over 64 µg/mL; in assay [2], over 64 µg/mL; in assay [3], over 64 µg/mL; in assay [4], over 64 µg/mL; in [5], over 64 µg/mL; in assay [6] it was 32 µg/mL (≈ 56.6 µM). The MIC in assay [7] is 32 µg/mL (≈ 56.6 µM); in assay [8], 32 µg/mL (≈ 56.6 µM); in [9], over 64 µg/mL; in assay [10], over 64 µg/mL; in assay [11], 32 µg/mL (≈ 56.6 µM); in assay [12], 32 µg/mL (≈ 56.6 µM). The MIC in assay [13] stood at 64 µg/mL (≈ 113 µM); in assay [14], 32 µg/mL (≈ 56.6 µM); in assay [15], 32 µg/mL (≈ 56.6 µM); in [16], 64 µg/mL (≈ 113 µM); in assay [17] it was 64 µg/mL (≈ 113 µM); in [18] it was 32 µg/mL (≈ 56.6 µM).

Take `CN(C)c1cc2nc(-c3ccncc3)oc2c2c1C[C@H]1C[C@H]3[C@H](N(C)C)C(O)=C(C(N)=O)C(=O)[C@@]3(O)C(O)=C1C2=O` [Example 33, (6aR,7aS,8S,11aS)-5,8-bis(dimethylamino)-9,11a,12-trihydroxy-11,13-dioxo-2-pyridin-4-yl-6,6a,7,7a,8,11,11a,13-octahydrotetraceno[2,1-d][1,3]oxazole-10-carboxamide]: the MIC in [1] is over 64 µg/mL; in assay [2] it was over 64 µg/mL; in assay [3] it was 64 µg/mL (≈ 114 µM); in assay [4], over 64 µg/mL; in assay [5], over 64 µg/mL; in assay [6], 16 µg/mL (≈ 28.6 µM). For the same compound, the MIC in assay [7] came to 16 µg/mL (≈ 28.6 µM); in [8] it was 16 µg/mL (≈ 28.6 µM); in [9], 32 µg/mL (≈ 57.2 µM); in [10], 8 µg/mL (≈ 14.3 µM); in assay [11], 16 µg/mL (≈ 28.6 µM); in assay [12], 16 µg/mL (≈ 28.6 µM). The MIC is 16 µg/mL (≈ 28.6 µM) in assay [13]; 16 µg/mL (≈ 28.6 µM) in assay [14]; 32 µg/mL (≈ 57.2 µM) in assay [15]; 32 µg/mL (≈ 57.2 µM) in assay [16]; 16 µg/mL (≈ 28.6 µM) in assay [17]; 8 µg/mL (≈ 14.3 µM) in assay [18].

`CN(C)c1cc2nc(-c3ccc(C#N)cc3)oc2c2c1C[C@H]1C[C@H]3[C@H](N(C)C)C(O)=C(C(N)=O)C(=O)[C@@]3(O)C(O)=C1C2=O` [Example 7, (6aR,7aS,8S,11aS)-2-(4-cyanophenyl)-5,8-bis(dimethylamino)-9,11a,12-trihydroxy-11,13-dioxo-6,6a,7,7a,8,11,11a,13-octahydrotetraceno[2,1-d][1,3]oxazole-10-carboxamide]: the MIC in [1] was over 64 µg/mL; in [2], over 64 µg/mL; in assay [3], over 64 µg/mL; in [4] it was over 64 µg/mL; in assay [5], over 64 µg/mL; in assay [6], 8 µg/mL (≈ 13.7 µM). In addition, the MIC in assay [7] amounted to 8 µg/mL (≈ 13.7 µM); in assay [8], 8 µg/mL (≈ 13.7 µM); in assay [9], 64 µg/mL (≈ 110 µM); in assay [10], 4 µg/mL (≈ 6.85 µM); in assay [11], 8 µg/mL (≈ 13.7 µM); in assay [12], 8 µg/mL (≈ 13.7 µM). The MIC is 8 µg/mL (≈ 13.7 µM) in [13]; 8 µg/mL (≈ 13.7 µM) in [14]; 8 µg/mL (≈ 13.7 µM) in assay [15]; 16 µg/mL (≈ 27.4 µM) in [16]; 8 µg/mL (≈ 13.7 µM) in assay [17]; 8 µg/mL (≈ 13.7 µM) in assay [18].

With `CN(C)c1cc2nc(-c3cc4ccccc4o3)oc2c2c1C[C@H]1C[C@H]3[C@H](N(C)C)C(O)=C(C(N)=O)C(=O)[C@@]3(O)C(O)=C1C2=O` [Example 18, (6aR,7aS,8S,11aS)-2-(1-benzofuran-2-yl)-5,8-bis(dimethylamino)-9,11a,12-trihydroxy-11,13-dioxo-6,6a,7,7a,8,11,11a,13-octahydrotetraceno[2,1-d][1,3]oxazole-10-carboxamide], the MIC in assay [1] was over 64 µg/mL; in [2] it was over 64 µg/mL; in assay [3] it was over 64 µg/mL; in assay [4], over 64 µg/mL; in assay [5], over 64 µg/mL; in assay [6], 4 µg/mL (≈ 6.68 µM). Also, the MIC in assay [7] was 4 µg/mL (≈ 6.68 µM); in assay [8], 4 µg/mL (≈ 6.68 µM); in assay [9], over 64 µg/mL; in [10], 8 µg/mL (≈ 13.4 µM); in assay [11], 4 µg/mL (≈ 6.68 µM); in [12], 4 µg/mL (≈ 6.68 µM). The MIC turned out to be 4 µg/mL (≈ 6.68 µM) in [13]; 4 µg/mL (≈ 6.68 µM) in assay [14]; 4 µg/mL (≈ 6.68 µM) in assay [15]; 16 µg/mL (≈ 26.7 µM) in assay [16]; 16 µg/mL (≈ 26.7 µM) in assay [17]; 16 µg/mL (≈ 26.7 µM) in assay [18].

Turning to `COc1ccc(/C=C/c2nc3cc(N(C)C)c4c(c3o2)C(=O)C2=C(O)[C@]3(O)C(=O)C(C(N)=O)=C(O)[C@@H](N(C)C)[C@@H]3C[C@@H]2C4)cc1` [Example 26, (6aR,7aS,8S,11aS)-5,8-bis(dimethylamino)-9,11a,12-trihydroxy-2-[(E)-2-(4-methoxyphenyl)ethenyl]-11,13-dioxo-6,6a,7,7a,8,11,11a,13-octahydrotetraceno[2,1-d][1,3]oxazole-10-carboxamide], the MIC was over 64 µg/mL in assay [1]; over 64 µg/mL in assay [2]; over 64 µg/mL in assay [3]; over 64 µg/mL in assay [4]; over 64 µg/mL in assay [5]; 32 µg/mL (≈ 52.1 µM) in assay [6]. The MIC in assay [7] was 16 µg/mL (≈ 26 µM); in [8], 32 µg/mL (≈ 52.1 µM); in assay [9], over 64 µg/mL; in assay [10], over 64 µg/mL; in assay [11], 32 µg/mL (≈ 52.1 µM); in assay [12] it was 16 µg/mL (≈ 26 µM). Moreover, the MIC in assay [13] is 16 µg/mL (≈ 26 µM); in assay [14] it was 32 µg/mL (≈ 52.1 µM); in assay [15], 16 µg/mL (≈ 26 µM); in [16] it was over 64 µg/mL; in [17], over 64 µg/mL; in assay [18], 64 µg/mL (≈ 104 µM).

As for `CN(C)c1cc2nc(C=C(c3ccccc3)c3ccccc3)oc2c2c1C[C@H]1C[C@H]3[C@H](N(C)C)C(O)=C(C(N)=O)C(=O)[C@@]3(O)C(O)=C1C2=O` [Example 1, (6aR,7aS,8S,11aS)-5,8-bis(dimethylamino)-2-(2,2-diphenylvinyl)-9,11a,12-trihydroxy-11,13-dioxo-6,6a,7,7a,8,11,11a,13-octahydrotetraceno[2,1-d][1,3]oxazole-10-carboxamide], the MIC in assay [1] was over 64 µg/mL; in assay [2] it was over 64 µg/mL; in assay [3] it was over 64 µg/mL; in [4], over 64 µg/mL; in assay [5] it was over 64 µg/mL; in assay [6], 32 µg/mL (≈ 48.4 µM). The MIC was 16 µg/mL (≈ 24.2 µM) in [7]; 32 µg/mL (≈ 48.4 µM) in [8]; over 64 µg/mL in assay [9]; over 64 µg/mL in [10]; 16 µg/mL (≈ 24.2 µM) in assay [11]; 16 µg/mL (≈ 24.2 µM) in assay [12]. For the same compound, the MIC in assay [13] turned out to be 16 µg/mL (≈ 24.2 µM); in assay [14], 16 µg/mL (≈ 24.2 µM); in [15], 32 µg/mL (≈ 48.4 µM); in assay [16], 8 µg/mL (≈ 12.1 µM); in assay [17], 16 µg/mL (≈ 24.2 µM); in assay [18], 8 µg/mL (≈ 12.1 µM).
